Values quoted from earlier work in paper PMC3184248 (Angewandte Chemie (International ed. in English), 2011).

Key:
[1] = 1.5T, 37 °C
[2] = 1.5T, 37 °C; remark: listed apart in the source

Substance: GdDTPA
- relaxivity in buffer [1]: 3.3 mM⁻¹ s⁻¹
- relaxivity in plasma [2]: 4.1 mM⁻¹ s⁻¹
